Data from PubChem BioAssay (NCI).
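Dose response: 5 concentrations. Exposure: 48 h. Format: 96-well plates. Endpoint: linear interpolation; highest concentration if not reached. At the GI50, growth is halved. At the TGI there is no net growth.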

What was measured:
Experiment in all cases: DTP human tumour cell line panel, 48 h
[1] = system: A549 NSCLC
[2] = system: BT-549 breast
[3] = system: HT29 colon
[4] = system: UACC-62 melanoma
[5] = system: UO-31 renal
[6] = system: M14 melanoma
[7] = system: SK-MEL-5 melanoma
[8] = system: SF-295 CNS
[9] = system: U251 CNS
[10] = system: KM12 colon
[11] = system: RPMI-8226 leukemia
[12] = system: SK-MEL-2 melanoma
[13] = system: SR leukemia
[14] = system: SNB-75 CNS
[15] = system: NCI-H522 lung
[16] = system: HL-60(TB) leukemia
[17] = system: OVCAR-5 ovarian
[18] = system: K-562 leukemia
[19] = system: OVCAR-4 ovarian
[20] = system: SW-620 colon
[21] = system: T-47D breast
[22] = system: MOLT-4 leukemia
[23] = system: LOX IMVI melanoma
[24] = system: DU-145 prostate
[25] = system: HCC-2998 colon
[26] = system: NCI-H460 lung
[27] = system: MCF7 breast
[28] = system: SN12C renal
[29] = system: 786-0 renal
[30] = system: TK-10 renal
[31] = system: NCI/ADR-RES ovarian
[32] = system: UACC-257 melanoma
[33] = system: NCI-H23 lung
[34] = system: EKVX NSCLC
[35] = system: SK-MEL-28 melanoma
[36] = system: ACHN renal
[37] = system: HOP-62 NSCLC
[38] = system: SK-OV-3 ovarian
[39] = system: OVCAR-8 ovarian
[40] = system: HCT-116 colon
[41] = system: RXF 393 renal
[42] = system: COLO 205 colon
[43] = system: CAKI-1 renal
[44] = system: NCI-H226 lung
[45] = system: HOP-92 NSCLC
[46] = system: HCT-15 colon
[47] = system: SNB-19 CNS
[48] = system: PC-3 prostate
[49] = system: MDA-MB-435
[50] = system: MALME-3M melanoma
[51] = system: SF-539 CNS
[52] = system: HS 578T breast
[53] = system: IGROV1 ovarian
[54] = system: SF-268 CNS
[55] = system: CCRF-CEM leukemia
[56] = system: A498 renal
[57] = system: OVCAR-3 ovarian
[58] = system: MDA-MB-231 breast

Compound `Nc1nc(Nc2cccnc2)sc1C(=O)c1ccccc1F` has a GI50 [1] of 3.16 µM, a TGI [1] greater than 100 µM and a GI50 [2] of 1640 nM. It also gave a TGI [2] of 6.54 µM, a GI50 [3] of 2960 nM and a TGI [3] of 31.2 µM. It also gave a GI50 [4] of 1780 nM, a TGI [4] of 5.34 µM and a GI50 [5] of 2450 nM. It also gave a TGI [5] greater than 26.5 µM, a GI50 [6] of 4.64 µM and a TGI [6] of 20.2 µM. For the same compound, the GI50 [7] was 349 nM, the TGI [7] was 3.32 µM and the GI50 [8] was 2690 nM. It also gave a TGI [8] greater than 26.9 µM, a GI50 [9] of 2710 nM and a TGI [9] greater than 100 µM. It also gave a GI50 [10] of 3.06 µM, a TGI [10] of 32.5 µM and a GI50 [11] of 3.06 µM. The TGI [11] was 7.35 µM, the GI50 [12] was 2920 nM and the TGI [12] was 9.79 µM. It also gave a GI50 [13] of 709 nM, a GI50 [14] of 580 nM and a TGI [14] of 4.74 µM. The GI50 [15] was 8.26 µM, the TGI [15] was greater than 64.1 µM and the GI50 [16] was 2090 nM. For the same compound, the TGI [16] was 4.81 µM, the GI50 [17] was 2170 nM and the TGI [17] was 7.61 µM. The GI50 [18] was 6.69 µM, the TGI [18] was greater than 65.4 µM and the GI50 [19] was 8.74 µM. For the same compound, the TGI [19] was 76.6 µM, the GI50 [20] was 3.5 µM and the TGI [20] was greater than 42.6 µM. The GI50 [21] was 1830 nM, the TGI [21] was 11.9 µM and the GI50 [22] was 2520 nM. For the same compound, the TGI [22] was greater than 26.6 µM, the GI50 [23] was 2260 nM and the TGI [23] was greater than 100 µM. The GI50 [24] was 3.38 µM, the TGI [24] was greater than 100 µM and the GI50 [25] was 309 nM. The TGI [25] was 972 nM, the GI50 [26] was 2570 nM and the TGI [26] was 17.9 µM. For the same compound, the GI50 [27] was 1940 nM, the TGI [27] was 8.41 µM and the GI50 [28] was 3.02 µM. For the same compound, the TGI [28] was greater than 100 µM, the GI50 [29] was 3.18 µM and the TGI [29] was greater than 34.9 µM. It also gave a GI50 [30] of 4.09 µM, a TGI [30] of 49.9 µM and a GI50 [31] of 844 nM. For the same compound, the TGI [31] was 12.2 µM, the GI50 [32] was 4.29 µM and the TGI [32] was 40.1 µM. For the same compound, the GI50 [33] was 2550 nM, the TGI [33] was 12.4 µM and the GI50 [34] was 2600 nM. The TGI [34] was 13.9 µM, the GI50 [35] was 4.13 µM and the TGI [35] was 22.3 µM. It also gave a GI50 [36] of 2530 nM, a TGI [36] greater than 100 µM and a GI50 [37] of 6.67 µM. It also gave a TGI [37] greater than 93.8 µM, a GI50 [38] of 15.7 µM and a TGI [38] greater than 100 µM. The GI50 [39] was 3.9 µM, the TGI [39] was greater than 100 µM and the GI50 [40] was 2510 nM. For the same compound, the TGI [40] was greater than 100 µM, the GI50 [41] was 1900 nM and the TGI [41] was 4.39 µM. It also gave a GI50 [42] of 1780 nM, a TGI [42] of 4.68 µM and a GI50 [43] of 1940 nM. For the same compound, the TGI [43] was 6.86 µM, the GI50 [44] was 2670 nM and the TGI [44] was 31.4 µM. It also gave a GI50 [45] of 4.16 µM, a TGI [45] greater than 100 µM and a GI50 [46] of 2820 nM. It also gave a TGI [46] greater than 87.8 µM, a GI50 [47] of 2650 nM and a TGI [47] greater than 23.5 µM. The GI50 [48] was 3.29 µM, the TGI [48] was greater than 100 µM and the GI50 [49] was 3.74 µM. It also gave a TGI [49] of 24.3 µM, a GI50 [50] of 3.29 µM and a TGI [50] of 12.4 µM. The GI50 [51] was 1520 nM, the TGI [51] was 3.88 µM and the GI50 [52] was 3.02 µM. For the same compound, the TGI [52] was 10.8 µM, the GI50 [53] was 2170 nM and the TGI [53] was greater than 29.1 µM. The GI50 [54] was 3.24 µM, the TGI [54] was 25.8 µM and the GI50 [55] was 2190 nM. It also gave a TGI [55] greater than 21.9 µM, a GI50 [56] of 2590 nM and a TGI [56] of 7.02 µM. It also gave a GI50 [57] of 2820 nM, a TGI [57] greater than 28.1 µM and a GI50 [58] of 3.47 µM. It also gave a TGI [58] greater than 100 µM.
